Literature values in patent US20120189739A1, “Naturally-Sweetened Reduced-Calorie Base Syrup Compositions and Compositions Sweetened Therewith” (IMPERIAL SUGAR COMPANY, priority 2010, published 2012).

Conditions: Prakash et al. 2008; Kinghorn et al. 1999

SMILES	times sweeter than sucrose
C=C1C[C@@]23CC[C@H]4[C@@](C)(CCC[C@@]4(C)C(=O)O[C@@H]4O[C@H](CO)[C@@H](O)[C@H](O)[C@H]4O)[C@@H]2CC[C@]1(O[C@@H]1O[C@H](CO)[C@@H](O)[C@H](O[C@@H]2O[C@H](CO)[C@@H](O)[C@H](O)[C@H]2O)[C@H]1O[C@@H]1O[C@H](CO)[C@@H](O)[C@H](O)[C@H]1O)C3 [rebaudioside A]	200-300 times
C=C1C[C@@]23CC[C@H]4[C@@](C)(CCC[C@@]4(C)C(=O)O[C@@H]4O[C@H](CO)[C@@H](O)[C@H](O)[C@H]4O)[C@@H]2CC[C@]1(O[C@@H]1O[C@H](CO)[C@@H](O)[C@H](O)[C@H]1O[C@@H]1O[C@H](CO)[C@@H](O)[C@H](O)[C@H]1O)C3 [stevioside]	about 200 times
